Key:
Assay type in all cases: in vivo
Set-up in all cases: key: 5: completely killed; 4: seriously injured; 3: considerably injured; 2: somewhat injured; 1: slightly injured; 0: not injured (normally grown)
[1] = tested on: rice; test: Experiment 2 foliage treatment: rice; conditions: 4 weeks after treatment
Description: (§1) Upon seedling stage (two- or three-leaved stage) of rice, cockspur (Panicum crus-galli), garden radish, aobiyu (slender amaranth, Amaranthus viridis) and mehishiba (henry crabgrass, Digitaria cliaris) which were grown on a cultivated soil put in pots of 1/15500 ares, a selected compound obtained in a manner analogous to Example 8, in suspended wettable powder, was sprayed to each plant. After that, the pots were kept in a glass chamber to allow each plant to grow, and after the lapse of 4 weeks from the treatment with the selected compounds the herbicidal effects were evaluated. The evaluation of the herbicidal effects was similarly conducted as to that of Experiment 1.

[2] = tested on: cockspur (Panicum crus-galli); test: Experiment 2 foliage treatment: cockspur; conditions: 4 weeks after treatment
Description: as §1

[3] = tested on: garden radish; test: Experiment 2 foliage treatment: garden radish; conditions: 4 weeks after treatment
Description: as §1

[4] = tested on: aobiyu (slender amaranth, Amaranthus viridis); test: Experiment 2 foliage treatment: aobiyu; conditions: 4 weeks after treatment
Description: as §1

[5] = tested on: mehishiba (henry crabgrass, Digitaria cliaris); test: Experiment 2 foliage treatment: mehishiba; conditions: 4 weeks after treatment
Description: as §1

[6] = tested on: rice; test: Experiment 5 foliage treatment: rice; conditions: foliage spray of wettable powder suspension, evaluated 4 weeks after treatment
Description: as §1, with “11,” for “8,”, “as” for “as to”

[7] = tested on: cockspur (Panicum crus-galli); test: Experiment 5 foliage treatment: cockspur; conditions: foliage spray of wettable powder suspension, evaluated 4 weeks after treatment
Description: as §1, with “11,” for “8,”, “as” for “as to”

[8] = tested on: garden radish; test: Experiment 5 foliage treatment: garden radish; conditions: foliage spray of wettable powder suspension, evaluated 4 weeks after treatment
Description: as §1, with “11,” for “8,”, “as” for “as to”

[9] = tested on: aobiyu (slender amaranth, Amaranthus viridis); test: Experiment 5 foliage treatment: aobiyu; conditions: foliage spray of wettable powder suspension, evaluated 4 weeks after treatment
Description: as §1, with “11,” for “8,”, “as” for “as to”

[10] = tested on: mehishiba (henry crabgrass, Digitaria cliaris); test: Experiment 5 foliage treatment: mehishiba; conditions: foliage spray of wettable powder suspension, evaluated 4 weeks after treatment
Description: as §1, with “11,” for “8,”, “as” for “as to”

[11] = tested on: rice; test: Experiment 8 foliage treatment: rice; conditions: foliage spray of wettable powder suspension, evaluated 4 weeks after treatment
Description: as §1, with “14,” for “8,”

[12] = tested on: cockspur (Panicum crus-galli); test: Experiment 8 foliage treatment: cockspur; conditions: foliage spray of wettable powder suspension, evaluated 4 weeks after treatment
Description: as §1, with “14,” for “8,”

[13] = tested on: garden radish; test: Experiment 8 foliage treatment: garden radish; conditions: foliage spray of wettable powder suspension, evaluated 4 weeks after treatment
Description: as §1, with “14,” for “8,”

[14] = tested on: aobiyu (slender amaranth, Amaranthus viridis); test: Experiment 8 foliage treatment: aobiyu; conditions: foliage spray of wettable powder suspension, evaluated 4 weeks after treatment
Description: as §1, with “14,” for “8,”

[15] = tested on: mehishiba (henry crabgrass, Digitaria cliaris); test: Experiment 8 foliage treatment: mehishiba; conditions: foliage spray of wettable powder suspension, evaluated 4 weeks after treatment
Description: as §1, with “14,” for “8,”

[16] = tested on: paddy rice; test: Experiment 4 flooded soil treatment: injury to paddy rice; conditions: 4 weeks after treatment
Excerpt: (§2) Paddy soil (clay loam) was put into a pot so as to have a surface area of 1/15500 ares. Uniformly mixed seeds of several kinds of weeds, viz., nobie (barnyardgrass, Echinochloa spp.), broad-leaved weeds, hotarui (bulrush, Scirpus juncoides) and tamagayatsuri (small-flowered umbrellaplant, Cyperus difformis), were sown in the surface layer of the soil in each pot, and then paddy rice seedlings at the two- or three-leaved stage were transplanted into each pot to a depth of 2 cm, and water was fed into each pot so as to provide a 3 cm deep water layer on the soil surface. After 3 days, in other words at the initial stage of germination of nobie (barnyardgrass, Echinochloa spp.), a predetermined amount of a selected compound obtained in a manner analogous to Example 11 in the form of diluted aqueous solution was dropped into the water layer in each pot. After that, the pots were kept in a glass chamber to allow the paddy rice and the weeds to grow, and after the lapse of 4 weeks from the treatment with the selected compounds, the herbicidal effects and the degree of injury to the paddy rice were evaluated. The evaluation of the herbicidal effects was similarly conducted as to that of Experiment 1.

[17] = tested on: nobie (barnyardgrass, Echinochloa spp.); test: Experiment 4 flooded soil treatment: nobie; conditions: 4 weeks after treatment
Excerpt: as §2

[18] = tested on: broad-leaved weeds; test: Experiment 4 flooded soil treatment: broad-leaved weeds; conditions: 4 weeks after treatment
Excerpt: as §2

[19] = tested on: hotarui (bulrush, Scirpus juncoides); test: Experiment 4 flooded soil treatment: hotarui; conditions: 4 weeks after treatment
Excerpt: as §2

[20] = tested on: tamagayatsuri (small-flowered umbrellaplant, Cyperus difformis); test: Experiment 4 flooded soil treatment: tamagayatsuri; conditions: 4 weeks after treatment
Excerpt: as §2

Row | SMILES | Herbicidal Effect rice ([1]; 40 g/10a) | Herbicidal Effect rice ([1]; 80 g/10a) | Herbicidal Effect cockspur ([2]; 40 g/10a) | Herbicidal Effect cockspur ([2]; 80 g/10a) | Herbicidal Effect garden radish ([3]; 40 g/10a) | Herbicidal Effect garden radish ([3]; 80 g/10a) | Herbicidal Effect aobiyu ([4]; 40 g/10a) | Herbicidal Effect aobiyu ([4]; 80 g/10a) | Herbicidal Effect mehishiba ([5]; 40 g/10a) | Herbicidal Effect mehishiba ([5]; 80 g/10a) | Herbicidal Effect rice ([6]; 40 g/10a) | Herbicidal Effect rice ([6]; 80 g/10a) | Herbicidal Effect cockspur ([7]; 40 g/10a) | Herbicidal Effect cockspur ([7]; 80 g/10a) | Herbicidal Effect garden radish ([8]; 40 g/10a) | Herbicidal Effect garden radish ([8]; 80 g/10a) | Herbicidal Effect aobiyu ([9]; 40 g/10a) | Herbicidal Effect aobiyu ([9]; 80 g/10a) | Herbicidal Effect mehishiba ([10]; 40 g/10a) | Herbicidal Effect mehishiba ([10]; 80 g/10a) | further results
1 | CCC(=O)Nc1ccc(Cl)c(Cl)c1 [Comparative agentB, Propanil, reference compound] | 0 | 0 | 0 | 0 | 3 | 4 | 5 | 5 | 1 | 1 | 0 | 0 | 0 | 0 | 3 | 4 | 5 | 5 | 1 | 1 | Herbicidal Effect rice ([11]; 40 g/10a): 0; Herbicidal Effect rice ([11]; 80 g/10a): 0; Herbicidal Effect cockspur ([12]; 40 g/10a): 1; Herbicidal Effect cockspur ([12]; 80 g/10a): 1; Herbicidal Effect garden radish ([13]; 40 g/10a): 1; Herbicidal Effect garden radish ([13]; 80 g/10a): 3; Herbicidal Effect aobiyu ([14]; 40 g/10a): 5; Herbicidal Effect aobiyu ([14]; 80 g/10a): 5; Herbicidal Effect mehishiba ([15]; 40 g/10a): 0; Herbicidal Effect mehishiba ([15]; 80 g/10a): 1
2 | CCCCOC(=O)CSc1cc(N(C(C)=O)C(=O)C2=C(C(=O)OCCCC)CCCC2)c(F)cc1Cl [compound 40] | 1 | 1 | 1 | 1 | 5 | 5 | 5 | 5 | 1 | 1 |  |  |  |  |  |  |  |  |  |  | 
3 | CCCCOC(=O)C1=C(C(=O)N(C(C)=O)c2cc(SCC(=O)OCC)c(Cl)cc2F)CCCC1 [compound 39] | 1 | 1 | 1 | 1 | 5 | 5 | 5 | 5 | 1 | 1 |  |  |  |  |  |  |  |  |  |  | 
4 | CCCCOC(=O)c1cc(N(C(=O)C2=C(C(=O)OC)CCCC2)C(=O)c2cccnc2)c(F)cc1Cl [compound 66] |  |  |  |  |  |  |  |  |  |  | 1 | 1 | 1 | 1 | 4.5 | 5 | 5 | 5 | 1 | 2 | Injury of Paddy ([16]; 3.13 g/10a): 0; Injury of Paddy ([16]; 6.25 g/10a): 0; Herbicidal Effect nobie ([17]; 3.13 g/10a): 5; Herbicidal Effect nobie ([17]; 6.25 g/10a): 5; Herbicidal Effect broad-leaved weed ([18]; 3.13 g/10a): 5; Herbicidal Effect broad-leaved weed ([18]; 6.25 g/10a): 5; Herbicidal Effect hotarui ([19]; 3.13 g/10a): 4; Herbicidal Effect hotarui ([19]; 6.25 g/10a): 4; Herbicidal Effect tamagayatsuri ([20]; 3.13 g/10a): 4; Herbicidal Effect tamagayatsuri ([20]; 6.25 g/10a): 4
5 | C#CC(C)Oc1cc(N(C(=O)C2=C(C(=O)OC(C)C)CCCC2)C(=O)c2ccc(Cl)nc2)c(F)cc1Cl (centres unmarked) [compound 68] |  |  |  |  |  |  |  |  |  |  | 1 | 1 | 1 | 1 | 5 | 5 | 5 | 5 | 1 | 1 | Injury of Paddy ([16]; 3.13 g/10a): 0; Injury of Paddy ([16]; 6.25 g/10a): 0.5; Herbicidal Effect nobie ([17]; 3.13 g/10a): 5; Herbicidal Effect nobie ([17]; 6.25 g/10a): 5; Herbicidal Effect broad-leaved weed ([18]; 3.13 g/10a): 5; Herbicidal Effect broad-leaved weed ([18]; 6.25 g/10a): 5; Herbicidal Effect hotarui ([19]; 3.13 g/10a): 4; Herbicidal Effect hotarui ([19]; 6.25 g/10a): 4.5; Herbicidal Effect tamagayatsuri ([20]; 3.13 g/10a): 5; Herbicidal Effect tamagayatsuri ([20]; 6.25 g/10a): 5
6 | C#CC(C)Oc1cc(N(C(=O)C2=C(C(=O)OCCOC)CCCC2)C(=O)c2ccc(Cl)nc2)c(F)cc1Cl (centres unmarked) [compound 69] |  |  |  |  |  |  |  |  |  |  | 1 | 1 | 1 | 1 | 4.5 | 5 | 5 | 5 | 2 | 2 | Injury of Paddy ([16]; 3.13 g/10a): 0.5; Injury of Paddy ([16]; 6.25 g/10a): 0.5; Herbicidal Effect nobie ([17]; 3.13 g/10a): 5; Herbicidal Effect nobie ([17]; 6.25 g/10a): 5; Herbicidal Effect broad-leaved weed ([18]; 3.13 g/10a): 5; Herbicidal Effect broad-leaved weed ([18]; 6.25 g/10a): 5; Herbicidal Effect hotarui ([19]; 3.13 g/10a): 4; Herbicidal Effect hotarui ([19]; 6.25 g/10a): 4.5; Herbicidal Effect tamagayatsuri ([20]; 3.13 g/10a): 5; Herbicidal Effect tamagayatsuri ([20]; 6.25 g/10a): 5
